Results on eight molecules are retold here after patent US20230405003A1, “APPLICATION OF THYMIDINE DERIVATIVE IN PREPARATION OF DRUGS” (ONQUALITY PHARMACEUTICALS CHINA LTD., priority 2020, published 2023).

What all share (format): in vivo
Assay [1] has as its system 5-FU-induced diarrhea in Balb/c mice. Description: 5-FU-induced diarrhea mouse model (70 mg/kg/d i.p. for three days). The settings on record: 5-FU 70 mg/kg/d i.p. three days; for Food Uptake / Survival Rate / Diarrhea Grade: 12 days; for Diarrhea Grade: score 0-4; for Δ % BW on Day 9: (BW day 0 − BW day 9)/BW day 0, ± SEM. As to the method:
(§1) Male Balb/c mice (7-8 weeks, 23-25 g) were i.p. injected at a dose of 70 mg/kg/d, and the injection was performed for three days. The mice in the group of blank was injected with 0.9% NaCl, and evaluated for the effect by observing the change of diarrhea grade, food uptake, and weight change. The severity of diarrhea was scored in accordance with the following standards: 0: normal feces, 1: soft feces, 2: slightly wet, soft feces, 3: wet, unformed feces, with moderate coloration in perianal region, 4: watery feces with heavy coloration of hair in perianal region. The severity of diarrhea was evaluated by occurrence scores of various grades of diarrhea (Scores 0 to 4) and average score of diarrhea. […] The models were stable, and satisfied the experimental requirements.
The male Balb/c mice (7-8 weeks, 23-25 g) were fed and adapted for 1 week, and then divided into groups, with 10 mice in each group for administration test. 5-FU was dissolved in a 0.9% NaCl solution, and the mice in the model group and the treatment group were all i.p. injected at a dose of 70 mg/kg/d. The administration doses are shown in Table 6, and the modeling was completed in three days. While modeling of injection administration of 5-FU, the thymidine derivative or the combination of thymidine derivative and uridine derivative was administered by gavage, a series of compounds were dissolved in a PBS solution containing 5% DMSO+1% HPMC. The mice were daily observed for counting the diarrhea status, food uptake, weight change (A % BW) (the weight changes recorded in the table is the value on Day 9) and other information. After 12 days, the experiments were completed and statistically analyzed for the results.

Assay [2] concerns hand-foot syndrome caused by Cytarabine in rats. Briefly: Rat model of hand-foot syndrome caused by cytarabine, gel application. The settings on record: Cytarabine 120 mg/kg twice per day, 30 days. As to the method:
After SD rats were fed and adapted for one week (about 200 g), the rats were divided into groups, with 10 rats in each group. Then, the rats were subject to gavage administration. Capecitabine was dissolved in a 1:1 mixed solution of castor oil and ethanol and diluted for three times with PBS buffer. After gavage, the rats were fixed with a fixed cylinder, and a gel of thymidine derivative (or a compounded gel of thymidine derivative and uridine derivative) was applied to double hind paws (about 1 cm*3 cm) of the rats in group of administration (the types and concentrations are shown in Table 4), and a blank gel was applied to the group of blank (as a blank control). After approximately 4 hours of application, the rats were released after 4 hours, wiped with clean water to remove any residual drug at the application site, and allowed back to the cage. The thymidine derivative gel (or the compounded gel of thymidine derivative and uridine derivative) was administered with gavage every day. The gavage and application tests are repeated daily until the group of blank has developed obvious hand-foot syndrome.
The effects of thymidine derivative or a combination of thymidine derivative and uridine derivative on the chemotherapeutic drug-induced hand-foot syndrome in a rat model were tested according to the method in Examples 30-40. At the same time, paws of rats after treatment with the drug were taken and observed for their inflammation by hematoxylin-eosin staining (HE) and immunohistochemical staining (IHC).
The test thymidine derivative or the combination of thymidine derivative and uridine derivative, as well as the final concentration of the test compounds were shown in Table 8. Table 8 lists the animal experiment combination of a chemotherapeutical drug and the thymidine derivative gel (or the compound gel of thymidine derivative and uridine derivative) and the corresponding experimental results (wherein, the data in the column of control rate=the occurrence rate of hand-foot syndrome in Group of blank—the occurrence rate of hand-foot syndrome in Group of administration).

Assay [3] deals with 5-FU-induced diarrhea in Balb/c mice. Briefly: 5-FU-induced diarrhea mouse model (175 mg/kg single i.p.). The settings on record: 5-FU 175 mg/kg single i.p.; for Survival Rate / Average Diarrhea Grade: 6 days; for Average Diarrhea Grade: score 0-4. As to the method:
7-8-week-old male Balb/c mice were used to establish a 5-FU induced diarrhea model to test the effect of the thymidine derivative or the combination of thymidine derivative and uridine derivative on the relief of diarrhea.
Modeling dose of 5-Fu: 175 mg/kg; single administration, intraperitoneal injection (ip.);
Administration mode of the compound to test (thymidine derivative or combination of thymidine derivative and uridine derivative): single administration, by gavage, advance administration of the compound to test at various time points prior to intraperitoneal injection of 5-FU. The compound to test was administered 1 h prior to the administration of 5-FU, a certain amount of 5-FU was injected intraperitoneally 1 h later, and the compound to test was administered once again 7 h after the injection of 5-FU.
The mice were fed and adapted for one week, and then divided into groups, with 10 mice in each group for administration test.
as §1, with “The” for “Male Balb/c mice (7-8 weeks, 23-25 g) were i.p. injected at a dose of 70 mg/kg/d, and the injection was performed for three days. The”, “Group” for “group”, “evaluated” for “evaluated for”
5-FU was dissolved in a 0.9% NaCl solution, the mice in the model group and the treatment group were all i.p. injected at a dose of 175 mg/kg/d, […]. While modeling of injection administration of 5-FU, the thymidine derivative or the combination of thymidine derivative and uridine derivative was administered by gavage, and the compounds to test were dissolved in a PBS solution containing 5% DMSO+1% HPMC. Body weight was weighed daily to count the weight change (Δ % BW, the weight changes recorded in the table were the values on Day 6), and the food was weighed daily to calculate the food uptake. The mice were daily observed for their clinical status, e.g., activity, diarrhea, hair, fighting, etc. After 6 days, the experiments were completed and statistically analyzed for the results.

Take `CC(=O)OCC1OC(n2cc(C)c(=O)[nH]c2=O)CC1OC(C)=O` (stereo not drawn) [T1]: in assay [1] (37 mpk BID PO), the “Food Uptake” value was 155, the “Survival Rate” value amounted to 100%, the “Diarrhea Grade” value was determined as 1.4 and the “Δ % BW on Day 9” value is listed as 4.3% ± 3.7. Besides, in assay [1] (75 mpk BID PO), the “Food Uptake” value is reported as 100, the “Survival Rate” value stood at 80%, the “Diarrhea Grade” value is given as 1.3 and the “Δ % BW on Day 9” value is reported as 3.8% ± 1.6. Moreover, in assay [1] (150 mpk BID PO), the “Food Uptake” value was 89, the “Survival Rate” value is recorded as 80%, the “Diarrhea Grade” value is 1.5 and the “Δ % BW on Day 9” value was 16.3% ± 6.5.

On to `CC(=O)O[C@H]1C[C@H](n2cc(C)c(=O)[nH]c2=O)O[C@@H]1CO` [T2], for which, in assay [1] (75 mpk BID PO), the “Food Uptake” value is recorded as 123, the “Survival Rate” value was 100%, the “Diarrhea Grade” value was 1.4 and the “Δ % BW on Day 9” value is 6.6% ± 3.1.

Turning to `CC(=O)OC[C@H]1O[C@@H](n2cc(C)c(=O)[nH]c2=O)C[C@@H]1O` [T3], in assay [1] (50 mpk BID PO), the “Food Uptake” value was 109, the “Survival Rate” value came out at 70%, the “Diarrhea Grade” value came to 1.6 and the “Δ % BW on Day 9” value is recorded as 8.4% ± 3.2.

As to `COc1ccc2cc([C@H](C)C(=O)OC[C@H]3O[C@@H](n4cc(C)c(=O)[nH]c4=O)C[C@@H]3O)ccc2c1` [T25], in assay [2] (gel 3 wt%), the “Control Rate Forepaws” value was determined as 42.86% and the “Control Rate Hindpaws” value stood at 57.14%.

In the case of `Cc1cn([C@H]2C[C@H](O)[C@@H](COC(=O)[C@H](C)c3ccc(CC(C)C)cc3)O2)c(=O)[nH]c1=O` [T32], in assay [2] (gel 2 wt%), the “Control Rate Forepaws” value amounted to 33.33% and the “Control Rate Hindpaws” value is listed as 33.33%.

On to `Cc1ccc(C(=O)c2ccc(CC(=O)OC[C@H]3O[C@@H](n4cc(C)c(=O)[nH]c4=O)C[C@@H]3O)n2C)cc1` [T36], for which, in assay [3] (50 mpk gavage), the “Δ % BW (on Day 6)” value was 2.25% ± 0.54%, the “Survival Rate” value came out at 100% and the “Average Diarrhea Grade” value came to 1.6.

Turning to `Cc1ccc(C(=O)c2ccc(CC(=O)O[C@H]3C[C@H](n4cc(C)c(=O)[nH]c4=O)O[C@@H]3CO)n2C)cc1` [T45], in assay [3] (15 mpk gavage), the “Δ % BW (on Day 6)” value was −0.34% ± 0.36%, the “Survival Rate” value was 100% and the “Average Diarrhea Grade” value was 1.4.

For `Cc1cn([C@H]2C[C@H](OC(=O)C(C)c3cccc(C(=O)c4ccccc4)c3)[C@@H](CO)O2)c(=O)[nH]c1=O` (stereo partly drawn) [T50], in assay [3] (50 mpk gavage), the “Δ % BW (on Day 6)” value was 2.08% ± 0.86%, the “Survival Rate” value came out at 100% and the “Average Diarrhea Grade” value is 1.1.
